No end group written: not given here.
System: MDCK (Madin-Darby Canine Kidney) cells
Experiment: Passage across an epithelium with tight junctions (TRANSWELL system)
Assay type: in vitro ADME
Settings: for passage into the apical compartment: Example 4: basolateral compartment, 10 μM, 30 minutes at 370° C.
Procedure: The passage of the Penet and NES-Penet peptides across an epithelium with tight junctions was evaluated using the device (TRANSWELL system, CORNING-COSTAR) represented in FIG. 3.
This device comprises two compartments (1, 2) separated by a microporous polyester membrane (3) on which an epithelium (4) consisting of MDCK (Madin-Darby Canine Kidney) cells has been established. The cells are seeded and grow to confluence.
The compartment (1) in contact with the microporous membrane and the basolateral pole of the cells is referred to as the basolateral compartment. The compartment (2), in contact with the apical pole of the cells, is referred to as the apical compartment.
Each of the compartments is filled with medium consisting of the following: Minimum Essential Medium with Earle Salt (MEM), 2 mM glutamine, 2 mM Hepes, pH 7, 5 U/ml penicillin, 5 μg/ml streptomycin, supplemented with a mixture of protease inhibitors.
For each experiment, the integrity of the tight junctions is controlled by measuring the resistance between the two compartments (R>2000Ω/cm^2).
Moreover, the tightness of the epithelium was also verified by adding […] inulin (6.5×10^5 cpm/compartment), either to the apical compartment or to the basolateral compartment, and measuring the radioactivity in the other compartment 180 minutes later. […]
The peptides are precipitated by adding 10% trichloro-acetic acid (TCA), and taken up in boiling Laemmli medium. […] The presence of the Penet-1 or NES-Penet peptides in the starting compartment, in the end compartment, or inside the cells, is detected by revelation with streptavidin-peroxidase as indicated in Example 1 above. […]
At the end of the incubation, the contents of the basolateral compartment and of the apical compartment, and that of the cells, were analyzed as described above in order to detect the presence of the NES-Penet peptide.
Furthermore, the passage of the peptides across an epithelium with tight junctions was evaluated using the device described in Example 2 above. […]

Row | Molecule | passage into the apical compartment | degradation of the peptide during passage
1 | CC[C@H](C)[C@H](NC(=O)[C@H](CCCCN)NC(=O)[C@@H]1CCCN1C(=O)[C@H](CCC(N)=O)NC(=O)[C@H](CCCNC(=N)N)NC(=O)[C@H](CCC(=O)O)NC(=O)[C@H](CC(N)=O)NC(=O)[C@H](CC(C)C)NC(=O)CNC(=O)[C@H](CC(C)C)NC(=O)[C@H](CCC(=O)O)NC(=O)[C@H](CCC(N)=O)NC(=O)[C@H](C)NC(=O)[C@H](CC(C)C)NC(=O)[C@H](CO)NC(=O)[C@H](CCC(N)=O)NC(=O)CCCCNC(=O)CCCC[C@@H]1SC[C@@H]2NC(=O)N[C@@H]21)C(=O)N[C@@H](Cc1c[nH]c2ccccc12)C(=O)N[C@@H](Cc1ccccc1)C(=O)N1CCC[C@H]1C(=O)N[C@@H](CC(N)=O)C(=O)N[C@@H](CCCNC(=N)N)C(=O)N[C@@H](CCCNC(=N)N)C(=O)N[C@@H](CCCCN)C(=O)N1CCC[C@H]1C(=O)N[C@@H](Cc1c[nH]c2ccccc12)C(=O)N[C@@H](CCCCN)C(=O)N[C@@H](CCCCN)C(=O)O [NES-Pen3P] | much greater | –
2 | CC[C@H](C)[C@H](NC(=O)[C@H](CCCCN)NC(=O)[C@@H](NC(=O)[C@H](CCC(N)=O)NC(=O)[C@H](CCCNC(=N)N)NC(=O)[C@H](CCC(=O)O)NC(=O)[C@H](CC(N)=O)NC(=O)[C@H](CC(C)C)NC(=O)CNC(=O)[C@H](CC(C)C)NC(=O)[C@H](CCC(=O)O)NC(=O)[C@H](CCC(N)=O)NC(=O)[C@H](C)NC(=O)[C@H](CC(C)C)NC(=O)[C@H](CO)NC(=O)[C@H](CCC(N)=O)NC(=O)CCCCNC(=O)CCCC[C@@H]1SC[C@@H]2NC(=O)N[C@@H]21)[C@@H](C)CC)C(=O)N[C@@H](Cc1c[nH]c2ccccc12)C(=O)N[C@@H](Cc1ccccc1)C(=O)N[C@@H](CCC(N)=O)C(=O)N[C@@H](CC(N)=O)C(=O)N[C@@H](CCCNC(=N)N)C(=O)N[C@@H](CCCNC(=N)N)C(=O)N[C@@H](CCSC)C(=O)N[C@@H](CCCCN)C(=O)N[C@@H](Cc1c[nH]c2ccccc12)C(=O)N[C@@H](CCCCN)C(=O)N[C@@H](CCCCN)C(=O)O [NES-Penet] | – | not accompanied by any degradation
3 | RQPKIWFPNRRKPWKK [Pen3P, RQPKIWFPNRRKPWKK, reference compound] | very slight passage | –

— patent US8242088B2, “Carrier vectors through an epithelium with tight junctions” (Centre National de la Recherche Scientifique, priority 2000, dated 2012)
